# Experimental data published in US20260315494A1, “TREATMENT OF BREAST TISSUE” (Havah Therapeutics Pty Ltd, priority 2023, published 2026).
# Several values for one entry are separate records, joined by “and”; a condition that tells them apart may be missing. Identical values can stand only once.
# Experiment: Single-dose pharmacokinetics of T+Ai pellet implant (80 mg testosterone + 4 mg anastrozole, subcutaneous)
# Conditions: for concentration at 24 h: 24 h post-dose
# Protocol: The premenopausal women were aged between 35 and 55 years of age with a BMI range of 20-30 kg/m^2. […] The implant was intended to be left in situ and was expected to be almost completely absorbed within three months following insertion.
# A total of 11 subjects were dosed with the implant and included in the safety analysis set. All 11 subjects were included in the pharmacokinetics (PK) analysis set.
# (NB: the sample collection time point at 6 hours post-dose was added for the third and subsequent subject and so serum measurements were not determined for the first two subjects as noted below).
# Patients seeking treatment with the T+Ai for reduction in high MBD were eligible for the study. Following successful screening, subjects attended the Wellend Health Clinic for dosing. The trial was designed to dose all subjects while in the luteal phase of their menstrual cycle to avoid the highly changing hormonal environment of the follicular phase. Following insertion of the implant, PK blood sampling was carried out for a duration of three months (see below). Briefly, samples were taken repeatedly on the day of dosing, daily during the first week, weekly for the next four weeks and every second week during the last eight weeks of a total sampling period of three months.
# The sampling schedule was revised with the addition of one blood sample (at 6 hours post-dose as discussed above), and no adjustment of the timing of existing time points was made. The duration of sampling was not extended.
# Following dosing on Day 1, blood samples were taken pre-dose (within one hour of dosing) and at 1, 2, 4, 6, 8 and 12 hours. Participants returned for a blood sample to be taken at 9 am in the morning on Days 2, 3, 4, 5, 8, 15, 22, 29, 43, 57, 71 and 85.
smiles,measurement,setting,value
"CC(C)(C#N)c1cc(Cn2cncn2)cc(C(C)(C)C#N)c1 [Anastrozole, 2,2′-[5-(1H-1,2,4-triazol-1-ylmethyl)-1,3-phenylene]bis(2-methylpropanenitrile)]",anastrozole level versus conventional full oral dosing,compared with conventional full oral dosing,5 times lower
same,Tmax,"human, in vivo, sc, 4 mg",24 to 72 h
same,concentration at 1008 h,"human, in vivo, sc, 4 mg, Measured serum anastrozole, GeoMean, geometric mean (BLQ excluded), 1008 h post-dose",0.49 ng/mL
same,concentration at 1344 h,"human, in vivo, sc, 4 mg, Measured serum anastrozole, GeoMean, geometric mean (BLQ excluded), 1344 h post-dose",0.3 ng/mL
same,concentration at 1680 h,"human, in vivo, sc, 4 mg, Measured serum anastrozole, GeoMean, geometric mean (BLQ excluded), 1680 h post-dose",0.26 ng/mL
same,concentration at 2016 h,"human, in vivo, sc, 4 mg, Measured serum anastrozole, GeoMean, geometric mean (BLQ excluded), 2016 h post-dose",0.21 ng/mL
same,concentration at 1 h,"human, in vivo, sc, 4 mg, Measured serum anastrozole, GeoMean, geometric mean, 1 h post-dose",0.35 ng/mL
same,concentration at 2 h,"human, in vivo, sc, 4 mg, Measured serum anastrozole, GeoMean, geometric mean, 2 h post-dose",0.61 ng/mL
same,concentration at 4 h,"human, in vivo, sc, 4 mg, Measured serum anastrozole, GeoMean, geometric mean, 4 h post-dose",1.15 ng/mL
same,concentration at 6 h,"human, in vivo, sc, 4 mg, Measured serum anastrozole, GeoMean, geometric mean, 6 h post-dose",2.31 ng/mL
same,concentration at 8 h,"human, in vivo, sc, 4 mg, Measured serum anastrozole, GeoMean, geometric mean, 8 h post-dose",3.23 ng/mL
same,concentration at 12 h,"human, in vivo, sc, 4 mg, Measured serum anastrozole, GeoMean, geometric mean, 12 h post-dose",3.97 ng/mL
same,concentration at 24 h,"human, in vivo, sc, 4 mg, Measured serum anastrozole, GeoMean, geometric mean",4.77 ng/mL
same,concentration at 48 h,"human, in vivo, sc, 4 mg, Measured serum anastrozole, GeoMean, geometric mean, 48 h post-dose",4.98 ng/mL
same,concentration at 72 h,"human, in vivo, sc, 4 mg, Measured serum anastrozole, GeoMean, geometric mean, 72 h post-dose",4.92 ng/mL
same,concentration at 96 h,"human, in vivo, sc, 4 mg, Measured serum anastrozole, GeoMean, geometric mean, 96 h post-dose",4.58 ng/mL
same,concentration at 168 h,"human, in vivo, sc, 4 mg, Measured serum anastrozole, GeoMean, geometric mean, 168 h post-dose",3.5 ng/mL
same,concentration at 504 h,"human, in vivo, sc, 4 mg, Measured serum anastrozole, GeoMean, geometric mean, 504 h post-dose",1.42 ng/mL
same,concentration at 24 h,"human, in vivo, sc, 4 mg, Measured serum anastrozole, individual subject",6.08 ng/mL
same,concentration at 48 h,"human, in vivo, sc, 4 mg, Measured serum anastrozole, individual subject, 48 h post-dose",6.17 ng/mL
same,concentration at 72 h,"human, in vivo, sc, 4 mg, Measured serum anastrozole, individual subject, 72 h post-dose",4.94 ng/mL
same,concentration at 96 h,"human, in vivo, sc, 4 mg, Measured serum anastrozole, individual subject, 96 h post-dose",4.36 ng/mL
same,concentration at 168 h,"human, in vivo, sc, 4 mg, Measured serum anastrozole, individual subject, 168 h post-dose",2.84 ng/mL
same,concentration at 1 h,"human, in vivo, sc, 4 mg, Measured serum anastrozole, mean, 1 h post-dose",0.38 ng/mL
same,concentration at 2 h,"human, in vivo, sc, 4 mg, Measured serum anastrozole, mean, 2 h post-dose",0.7 ng/mL
same,concentration at 4 h,"human, in vivo, sc, 4 mg, Measured serum anastrozole, mean, 4 h post-dose",1.37 ng/mL
same,concentration at 6 h,"human, in vivo, sc, 4 mg, Measured serum anastrozole, mean, 6 h post-dose",2.58 ng/mL
same,concentration at 8 h,"human, in vivo, sc, 4 mg, Measured serum anastrozole, mean, 8 h post-dose",3.44 ng/mL
same,concentration at 12 h,"human, in vivo, sc, 4 mg, Measured serum anastrozole, mean, 12 h post-dose",4.06 ng/mL
same,concentration at 24 h,"human, in vivo, sc, 4 mg, Measured serum anastrozole, mean",4.84 ng/mL
same,concentration at 48 h,"human, in vivo, sc, 4 mg, Measured serum anastrozole, mean, 48 h post-dose",5.06 ng/mL
same,concentration at 72 h,"human, in vivo, sc, 4 mg, Measured serum anastrozole, mean, 72 h post-dose",4.96 ng/mL
same,concentration at 96 h,"human, in vivo, sc, 4 mg, Measured serum anastrozole, mean, 96 h post-dose",4.62 ng/mL
same,concentration at 168 h,"human, in vivo, sc, 4 mg, Measured serum anastrozole, mean, 168 h post-dose",3.57 ng/mL
same,concentration at 504 h,"human, in vivo, sc, 4 mg, Measured serum anastrozole, mean, 504 h post-dose",1.47 ng/mL
same,concentration at 1008 h,"human, in vivo, sc, 4 mg, Measured serum anastrozole, mean, 1008 h post-dose",0.49 ng/mL
same,concentration at 1344 h,"human, in vivo, sc, 4 mg, Measured serum anastrozole, mean, 1344 h post-dose",0.22 ng/mL
same,concentration at 1680 h,"human, in vivo, sc, 4 mg, Measured serum anastrozole, mean, 1680 h post-dose",0.1 ng/mL
same,concentration at 2016 h,"human, in vivo, sc, 4 mg, Measured serum anastrozole, mean, 2016 h post-dose",0.04 ng/mL
same,concentration at 1 h,"human, in vivo, sc, 4 mg, Measured serum anastrozole, median, 1 h post-dose",0.32 ng/mL
same,concentration at 2 h,"human, in vivo, sc, 4 mg, Measured serum anastrozole, median, 2 h post-dose",0.62 ng/mL
same,concentration at 4 h,"human, in vivo, sc, 4 mg, Measured serum anastrozole, median, 4 h post-dose",1.12 ng/mL
same,concentration at 6 h,"human, in vivo, sc, 4 mg, Measured serum anastrozole, median, 6 h post-dose",3.08 ng/mL
same,concentration at 8 h,"human, in vivo, sc, 4 mg, Measured serum anastrozole, median, 8 h post-dose",3.5 ng/mL
same,concentration at 12 h,"human, in vivo, sc, 4 mg, Measured serum anastrozole, median, 12 h post-dose",4.32 ng/mL
same,concentration at 24 h,"human, in vivo, sc, 4 mg, Measured serum anastrozole, median",4.96 ng/mL
same,concentration at 48 h,"human, in vivo, sc, 4 mg, Measured serum anastrozole, median, 48 h post-dose",5.05 ng/mL
same,concentration at 72 h,"human, in vivo, sc, 4 mg, Measured serum anastrozole, median, 72 h post-dose",4.92 ng/mL
same,concentration at 96 h,"human, in vivo, sc, 4 mg, Measured serum anastrozole, median, 96 h post-dose",4.6 ng/mL
same,concentration at 168 h,"human, in vivo, sc, 4 mg, Measured serum anastrozole, median, 168 h post-dose",3.58 ng/mL
same,concentration at 504 h,"human, in vivo, sc, 4 mg, Measured serum anastrozole, median, 504 h post-dose",1.36 ng/mL
same,concentration at 1008 h,"human, in vivo, sc, 4 mg, Measured serum anastrozole, median, 1008 h post-dose",0.4 ng/mL
same,concentration at 1344 h,"human, in vivo, sc, 4 mg, Measured serum anastrozole, median, 1344 h post-dose",0.16 ng/mL
same,concentration at 2016 h,"human, in vivo, sc, 4 mg, plasma anastrozole concentration after 12 weeks, below limit of quantitation in most participants after 12 weeks",< 0.1 ng/mL
same,Measured serum anastrozole,"individual subject, 1 h post-dose, 60 min",0.215 ng/mL and 0.525 ng/mL and 0.218 ng/mL and 0.515 ng/mL and 0.394 ng/mL and 0.127 ng/mL and 0.855 ng/mL and 0.321 ng/mL and 0.243 ng/mL and 0.751 ng/mL
same,Measured serum anastrozole,"individual subject, 2 h post-dose, 120 min",0.404 ng/mL and 0.615 ng/mL and 1.30 ng/mL and 0.887 ng/mL and 0.831 ng/mL and 0.306 ng/mL and 1.04 ng/mL and 0.596 ng/mL and 0.509 ng/mL and 0.180 ng/mL and 1.02 ng/mL
same,Measured serum anastrozole,"individual subject, 4 h post-dose, 240 min",1.03 ng/mL and 2.97 ng/mL and 2.23 ng/mL and 0.902 ng/mL and 1.50 ng/mL and 0.582 ng/mL and 2.11 ng/mL
same,Measured serum anastrozole,"individual subject, 6 h post-dose, 360 min",3.11 ng/mL and 3.07 ng/mL and 3.42 ng/mL (2×) and 1.63 ng/mL and 3.21 ng/mL and 1.62 ng/mL and 0.651 ng/mL
same,Measured serum anastrozole,"individual subject, 8 h post-dose, 480 min",4.28 ng/mL and 3.41 ng/mL and 3.48 ng/mL and 4.75 ng/mL and 4.16 ng/mL and 2.18 ng/mL and 3.66 ng/mL and 3.33 ng/mL and 1.06 ng/mL and 3.99 ng/mL
same,Measured serum anastrozole,"individual subject, 12 h post-dose, 720 min",5.13 ng/mL and 3.27 ng/mL and 4.42 ng/mL and 3.87 ng/mL and 3.32 ng/mL and 4.86 ng/mL and 4.18 ng/mL and 2.25 ng/mL
same,Measured serum anastrozole,"individual subject, 48 h post-dose, 2880 min",3.95 ng/mL and 5.85 ng/mL and 5.58 ng/mL and 6.07 ng/mL and 4.85 ng/mL and 3.31 ng/mL and 5.28 ng/mL
same,Measured serum anastrozole,"individual subject, 72 h post-dose, 4320 min",4.72 ng/mL and 5.16 ng/mL and 5.00 ng/mL and 6.29 ng/mL and 5.68 ng/mL and 4.76 ng/mL and 3.66 ng/mL and 4.85 ng/mL
same,Measured serum anastrozole,"individual subject, 96 h post-dose, 5760 min",4.12 ng/mL and 4.67 ng/mL and 5.17 ng/mL
same,Measured serum anastrozole,"individual subject, 168 h post-dose, 10080 min",4.35 ng/mL
same,Measured serum anastrozole,"individual subject, 504 h post-dose, 30240 min",1.70 ng/mL and 1.83 ng/mL and 1.59 ng/mL
same,Measured serum anastrozole,"individual subject, 1008 h post-dose, 60480 min",0.332 ng/mL and 0.665 ng/mL and 0.505 ng/mL and 0.624 ng/mL
same,Measured serum anastrozole,"individual subject, 1344 h post-dose, 80640 min",0.144 ng/mL and 0.279 ng/mL
same,Measured serum anastrozole,"individual subject, 1680 h post-dose, 100800 min",0.143 ng/mL
same,"Measured serum anastrozole, mean","mean, pre-dose",0.00 ng/mL
same,"Measured serum anastrozole, median","median, pre-dose",0.00 ng/mL
same,"average Cmax, plasma anastrozole",plasma,5.30 ng/mL
same,"average terminal half-life, anastrozole",plasma,336 h
same,median Tmax for plasma anastrozole,"plasma, post-dose",48 h
